Laboratory results published in publication PMC10443802, “Targeting a xenobiotic transporter to ameliorate vincristine-induced sensory neuropathy” (JCI Insight, 2023).
Several values for one entry are separate records, joined by “and”; a condition that tells them apart may be missing. Equal entries are not always repeated. Where two headings read alike, the source gives them in different places. One block for each compound: values may come before it.

How the values were obtained:
mice [1] = details: for Protection against treatment-related mechanical allodynia by OATP1B2 deficiency: mouse, in vivo
mOATP1B2 [2] = target: T1, mOATP1B2 (Mus musculus, UniProt Q9JJL3); experiment: Inhibition of vincristine uptake in HEK293 cells overexpressing mOATP1B2; assay type: cell-based
T1 sequence (Q9JJL3 1-689): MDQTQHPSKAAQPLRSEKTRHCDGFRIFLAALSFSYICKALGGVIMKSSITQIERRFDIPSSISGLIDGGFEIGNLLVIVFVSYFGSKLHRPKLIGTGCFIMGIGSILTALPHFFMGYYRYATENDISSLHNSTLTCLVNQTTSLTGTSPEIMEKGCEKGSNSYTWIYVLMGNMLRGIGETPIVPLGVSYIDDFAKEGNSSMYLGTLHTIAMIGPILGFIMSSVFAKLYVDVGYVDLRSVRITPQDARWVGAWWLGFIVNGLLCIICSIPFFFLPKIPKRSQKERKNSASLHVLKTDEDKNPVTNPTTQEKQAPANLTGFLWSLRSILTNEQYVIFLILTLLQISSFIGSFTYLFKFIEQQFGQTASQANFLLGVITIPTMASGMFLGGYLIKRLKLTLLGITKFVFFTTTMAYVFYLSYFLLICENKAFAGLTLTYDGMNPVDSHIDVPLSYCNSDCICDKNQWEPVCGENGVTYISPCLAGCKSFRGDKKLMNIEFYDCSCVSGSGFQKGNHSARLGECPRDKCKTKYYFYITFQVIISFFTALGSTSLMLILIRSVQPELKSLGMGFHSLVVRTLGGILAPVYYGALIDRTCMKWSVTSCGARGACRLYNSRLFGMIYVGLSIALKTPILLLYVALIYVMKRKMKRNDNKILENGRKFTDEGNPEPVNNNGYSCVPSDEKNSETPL

hOATP1B1 [3] = target: T2, hOATP1B1 (Homo sapiens, UniProt Q9Y6L6); experiment: Inhibition of vincristine uptake in HEK293 cells overexpressing hOATP1B1; details: inhibitor 15 min pre-treatment
T2 sequence (Q9Y6L6 1-691): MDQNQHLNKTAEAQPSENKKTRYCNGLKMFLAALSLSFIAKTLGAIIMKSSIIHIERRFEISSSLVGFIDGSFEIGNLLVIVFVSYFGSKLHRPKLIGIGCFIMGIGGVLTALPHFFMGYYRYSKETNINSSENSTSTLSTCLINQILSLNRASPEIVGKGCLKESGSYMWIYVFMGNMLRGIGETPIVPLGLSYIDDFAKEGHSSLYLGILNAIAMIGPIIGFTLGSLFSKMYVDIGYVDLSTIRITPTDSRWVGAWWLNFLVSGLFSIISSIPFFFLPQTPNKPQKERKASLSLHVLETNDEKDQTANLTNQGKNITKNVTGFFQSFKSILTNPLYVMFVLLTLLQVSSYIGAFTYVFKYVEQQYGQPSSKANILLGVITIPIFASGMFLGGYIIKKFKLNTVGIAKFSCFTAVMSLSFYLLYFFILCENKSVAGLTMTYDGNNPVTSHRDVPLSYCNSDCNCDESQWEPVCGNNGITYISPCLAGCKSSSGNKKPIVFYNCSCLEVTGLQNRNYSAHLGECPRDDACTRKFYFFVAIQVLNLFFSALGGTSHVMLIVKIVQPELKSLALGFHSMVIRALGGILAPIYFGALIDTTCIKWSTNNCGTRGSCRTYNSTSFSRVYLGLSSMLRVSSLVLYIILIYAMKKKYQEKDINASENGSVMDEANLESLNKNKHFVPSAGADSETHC

hOATP1B3 [4] = target: T3, hOATP1B3 (Homo sapiens, UniProt Q9NPD5); experiment: Inhibition of vincristine uptake in HEK293 cells overexpressing hOATP1B3; details: inhibitor 15 min pre-treatment
T3 sequence (Q9NPD5 1-702): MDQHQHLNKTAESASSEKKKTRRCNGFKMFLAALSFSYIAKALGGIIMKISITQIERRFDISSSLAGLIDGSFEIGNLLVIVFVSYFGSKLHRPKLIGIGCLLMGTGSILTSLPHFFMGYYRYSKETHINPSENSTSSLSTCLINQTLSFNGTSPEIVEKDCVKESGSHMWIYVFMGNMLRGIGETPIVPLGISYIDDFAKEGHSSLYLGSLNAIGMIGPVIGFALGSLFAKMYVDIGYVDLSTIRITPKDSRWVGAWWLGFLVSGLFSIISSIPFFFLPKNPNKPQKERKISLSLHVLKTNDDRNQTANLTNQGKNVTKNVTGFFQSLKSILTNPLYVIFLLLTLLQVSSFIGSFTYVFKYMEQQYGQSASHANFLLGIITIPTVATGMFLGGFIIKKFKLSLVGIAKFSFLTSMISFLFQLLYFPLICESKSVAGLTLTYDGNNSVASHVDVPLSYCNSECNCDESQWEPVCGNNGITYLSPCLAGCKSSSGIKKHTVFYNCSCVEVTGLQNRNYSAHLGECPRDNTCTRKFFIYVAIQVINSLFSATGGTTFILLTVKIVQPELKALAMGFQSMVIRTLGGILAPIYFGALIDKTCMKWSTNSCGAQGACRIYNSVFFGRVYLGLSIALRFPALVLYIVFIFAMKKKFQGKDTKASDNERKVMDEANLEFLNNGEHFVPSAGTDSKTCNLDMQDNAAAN

mOATP1B2 [5] = target: T1, mOATP1B2; experiment: Inhibition of EβG uptake in HEK293 cells overexpressing mOATP1B2; assay type: cell-based
hOATP1B1 [6] = target: T2, hOATP1B1; experiment: Inhibition of EβG uptake in HEK293 cells overexpressing hOATP1B1; details: inhibitor 10 μM, 15-min pre-incubation
hOATP1B3 [7] = target: T3, hOATP1B3; experiment: Inhibition of EβG uptake in HEK293 cells overexpressing hOATP1B3; details: HEK293 hOATP1B3; inhibitor 10 μM, 15-min pre-incubation
OATP1B2 = experiment: Plasma level and DRG/plasma ratio of α-tocopherol in mice (biomarker of OATP1B2 function); assay type: in vivo, mouse
OATP1B-type transporters = details: cited from earlier work
mice [8] = details: cited from earlier work
[9] = mOATP1B2, in presence of alpha-tocopherol

SMILES: CC(=O)O[C@H]1C(=O)[C@@]2(C)[C@H]([C@H](OC(=O)c3ccccc3)[C@]3(O)C[C@H](OC(=O)[C@H](O)[C@@H](NC(=O)c4ccccc4)c4ccccc4)C(C)=C1C3(C)C)[C@]1(OC(C)=O)CO[C@@H]1C[C@@H]2O [Paclitaxel, paclitaxel]
Protection against treatment-related mechanical allodynia by OATP1B2 deficiency (mice [1]): protection against treatment-related mechanical allodynia was only observed

SMILES: CO[C@H]1/C=C/O[C@@]2(C)Oc3c(C)c(O)c4c(O)c(c(/C=N/N5CCN(C)CC5)c(O)c4c3C2=O)NC(=O)/C(C)=C\C=C\[C@H](C)[C@H](O)[C@@H](C)[C@@H](O)[C@@H](C)[C@H](OC(C)=O)[C@@H]1C [Rifampicin, rifampicin]
Vincristine uptake (% of vehicle) (mOATP1B2 [2]; HEK293 mOATP1B2, inhibitor 15 min pre-treatment): 69.4167 % of vehicle and 71.9856 % of vehicle and 78.1737 % of vehicle and 74.3324 % of vehicle and 63.8503 % of vehicle and 67.3213 % of vehicle
Vincristine uptake (% of vehicle) (hOATP1B1 [3]): 68.5513 % of vehicle and 91.3571 % of vehicle and 64.0921 % of vehicle
Vincristine uptake (% of vehicle) (hOATP1B3 [4]): 68.0365 % of vehicle and 67.1426 % of vehicle and 57.6334 % of vehicle and 46.0272 % of vehicle and 55.4053 % of vehicle and 65.8991 % of vehicle
EβG uptake (% of vehicle) (mOATP1B2 [5]; HEK293 mOATP1B2, inhibitor 10 μM, 15-min pre-incubation): 9.089 % of vehicle and 9.168 % of vehicle and 8.011 % of vehicle
EβG uptake (% of vehicle) (hOATP1B1 [6]): 26.1825 % of vehicle and 31.1005 % of vehicle and 27.1566 % of vehicle
EβG uptake (% of vehicle) (hOATP1B3 [7]): 4.339 % of vehicle and 4.237 % of vehicle and 4.051 % of vehicle
Protective effect against VIPN (mechanical allodynia) (mice [1]; rifampin pretreatment 20 mg/kg, single vincristine 1 mg/kg, wild-type mice): could be replicated with pretreatment of orally administered rifampin
Level of α-tocopherol (% of wild-type baseline), DRG/Plasma Ratio (OATP1B2; WT mice treated with the inhibitor, DRG/plasma ratio, listed as Rifampin): 27.9959% and 27.249% and 34.1971%
Level of α-tocopherol (% of wild-type baseline), Plasma (OATP1B2; WT mice treated with the inhibitor, plasma, listed as Rifampin): 236.636% and 352.754% and 217.386%
Level of α-tocopherol (% of wild-type baseline), relative DRG/plasma ratio (OATP1B2; WT mice, 2 hours after rifampin 20 mg/kg i.p.): 27.9959 % of wild-type baseline and 27.249 % of wild-type baseline and 34.1971 % of wild-type baseline

SMILES: OCCN(CCO)c1nc(N2CCCCC2)c2nc(N(CCO)CCO)nc(N3CCCCC3)c2n1 [Dipyridamole, dipyridamole]
Inhibitory potency against OATP1B-type transporters (OATP1B-type transporters): moderate inhibitory potency
Protection against VIPN (mice [8]): partially protected against VIPN in mice

SMILES: CC(=O)O[C@@]12CO[C@@H]1C[C@H](O)[C@@]1(C)C(=O)[C@H](O)C3=C(C)[C@@H](OC(=O)[C@H](O)[C@@H](NC(=O)OC(C)(C)C)c4ccccc4)C[C@@](O)([C@@H](OC(=O)c4ccccc4)[C@H]21)C3(C)C [Docetaxel, docetaxel]
Protection against treatment-related mechanical allodynia by OATP1B2 deficiency (mice [1]; DBA/1LacJ): independently of OATP1B2

More lines, main results first:

Protection against treatment-related mechanical allodynia by OATP1B2 deficiency (mice [1]; DBA/1LacJ): independently of OATP1B2
SMILES: C/C(=C\c1csc(C)n1)[C@@H]1C[C@@H]2O[C@]2(C)CCC[C@H](C)[C@H](O)[C@@H](C)C(=O)C(C)(C)[C@@H](O)CC(=O)N1 [Ixabepilone, ixabepilone]

Vincristine uptake (% of vehicle) (mOATP1B2 [2]; [9]): 51.7599% and 63.6149% and 58.7604%
SMILES: Cc1c(C)c2c(c(C)c1O)CC[C@@](C)(CCC[C@H](C)CCC[C@H](C)CCCC(C)C)O2 [alpha-tocopherol]
EβG uptake (% of vehicle) (mOATP1B2 [5]; [9]): 113.612% and 99.0126% and 119.375% and 118.704% and 95.6597% and 100.791%

Protection against treatment-related mechanical allodynia by OATP1B2 deficiency (mice [1]; DBA/1LacJ): independently of OATP1B2
SMILES: CCC1=C[C@@H]2CN(C1)Cc1c([nH]c3ccccc13)[C@@](C(=O)OC)(c1cc3c(cc1OC)N(C)[C@H]1[C@@](O)(C(=O)OC)[C@H](OC(C)=O)[C@]4(CC)C=CCN5CC[C@]31[C@@H]54)C2 [Vinorelbine, vinorelbine]

Protection against treatment-related mechanical allodynia by OATP1B2 deficiency (mice [1]; DBA/1LacJ): independently of OATP1B2
SMILES: C=C1C[C@@H]2CC[C@@]34C[C@H]5O[C@H]6[C@@H](O3)[C@H]3O[C@H](CC[C@@H]3O[C@H]6[C@H]5O4)CC(=O)C[C@@H]3[C@@H](OC)[C@@H](C[C@H](O)CN)O[C@H]3C[C@H]3O[C@@H](CC[C@@H]1O2)C[C@@H](C)C3=C [Eribulin, eribulin]
